# Assay results published in patent US20240368150A1 (Hoffmann-La Roche Inc., priority 2021, published 2024).
# Read-outs that look alike come from different tables or passages of the source.
# How the values were obtained:
# primary human T-cells [1] = assay: Proliferation assay after 5 days (CellTiter-Glo, CD3 stimulation; PBS counter screen); format: cell-based; conditions: Homo sapiens, T-cell, 120 h, CD3 stimulation; for Emax: 5 days, normalized to reference compound A1 as stimulator control = 100%, DMSO neutral control, read-out: Emax proliferation (% activation); for EC50: primary human T-cells, CellTiter-Glo after 5 days, EC50 of fitted sigmoidal curve, read-out: Tcell Proliferation CD3 EC50
# Procedure, shortened: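 ATP-based luminescence (CellTiter-Glo 2.0, room temperature) measured proliferation 5 days after compound addition to CD3-stimulated or unstimulated primary human T-cells. Flags marked compounds that lowered viability or activated unstimulated cells.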
# primary human T-cells [2] = tested on: primary human T-cells
Compound,EC50 (primary human T-cells [2]) [µM],Emax (primary human T-cells [1]) [%],EC50 (primary human T-cells [1]) [µM]
"CC(C)(C)c1nnc(-c2ccc3c(c2)N(Cc2ccc(OCC4CCOCC4)cc2)C(=O)[C@@H](N)CS3(=O)=O)o1 [Example 433, (3R)-3-amino-7-(5-tert-butyl-1,3,4-oxadiazol-2-yl)-1,1-dioxo-5-[[4-(tetrahydropyran-4-ylmethoxy)phenyl]methyl]-2,3-dihydro-1λ^6,5-benzothiazepin-4-one]",5.6,105,4.79
"CC(C)(C)c1nnc(-c2ccc3c(c2)N(Cc2ccc(Oc4ccc(F)cc4)cc2)C(=O)[C@@H](N)CS3(=O)=O)o1 [Example 439, (3R)-3-amino-7-(5-tert-butyl-1,3,4-oxadiazol-2-yl)-5-[[4-(4-fluorophenoxy)phenyl]methyl]-1,1-dioxo-2,3-dihydro-1λ^6,5-benzothiazepin-4-one]",2.1,138,0.299
"CC(C)(C)c1nnc(-c2ccc3c(c2)N(Cc2ccc(Oc4ccc(C(F)(F)F)cn4)cc2)C(=O)[C@@H](N)CS3(=O)=O)o1 [Example 440, (3R)-3-amino-7-(5-tert-butyl-1,3,4-oxadiazol-2-yl)-1,1-dioxo-5-[[4-[[5-(trifluoromethyl)-2-pyridyl]oxy]phenyl]methyl]-2,3-dihydro-1λ^6,5-benzothiazepin-4-one]",2.51,110,2.52
"CC#CCOc1ccc(CN2C(=O)[C@@H](N)CS(=O)(=O)c3ccc(-c4nnc(C(C)(C)C)o4)cc32)cc1 [Example 441, (3R)-3-amino-7-(5-tert-butyl-1,3,4-oxadiazol-2-yl)-5-[(4-but-2-ynoxyphenyl)methyl]-1,1-dioxo-2,3-dihydro-1λ^6,5-benzothiazepin-4-one]",3.85,128,1.02
"COC(=O)N1CC2CC(c3nnc(-c4ccc5c(c4)N(Cc4ccc(OC(F)(F)C(F)F)cc4)C(=O)[C@@H](N)CS5(=O)=O)o3)(C2)C1 [Example 443, Methyl 1-[5-[(3R)-3-amino-1,1,4-trioxo-5-[[4-(1,1,2,2-tetrafluoroethoxy)phenyl]methyl]-2,3-dihydro-1λ^6,5-benzothiazepin-7-yl]-1,3,4-oxadiazol-2-yl]-3-azabicyclo[3.1.1]heptane-3-carboxylate]",> 10,97,3.85

# Now from value to molecule, other results behind:
EC50 (primary human T-cells [2]) [µM],Compound,Emax (primary human T-cells [1]) [%],EC50 (primary human T-cells [1]) [µM]
6.16,"CC(C)(C)c1nnc(-c2ccc3c(c2)N(Cc2ccc(OC4CCCCC4)cc2)C(=O)[C@@H](N)CS3(=O)=O)o1 [Example 434, (3R)-3-amino-7-(5-tert-butyl-1,3,4-oxadiazol-2-yl)-5-[[4-(cyclohexoxy)phenyl]methyl]-1,1-dioxo-2,3-dihydro-1λ^6,5-benzothiazepin-4-one]",130,–
3.28,CC(C)(C)c1nnc(-c2ccc3c(c2)N(Cc2ccc(OC4CC4)cc2)C(=O)[C@@H](N)CS3(=O)=O)o1 [Example 435],117,0.671
4.23,"CC(C)(C)c1nnc(-c2ccc3c(c2)N(Cc2ccc(OC4CCOCC4)cc2)C(=O)[C@@H](N)CS3(=O)=O)o1 [Example 436, (3R)-3-amino-7-(5-tert-butyl-1,3,4-oxadiazol-2-yl)-1,1-dioxo-5-[(4-tetrahydropyran-4-yloxyphenyl)methyl]-2,3-dihydro-1λ^6,5-benzothiazepin-4-one]",66,0.94
9.56,"CC(C)(C)c1nnc(-c2ccc3c(c2)N(Cc2ccc(N4CCN(C5CC5)CC4)cc2)C(=O)[C@@H](N)CS3(=O)=O)o1 [Example 445, (3R)-3-amino-7-(5-tert-butyl-1,3,4-oxadiazol-2-yl)-5-[[4-(4-cyclopropylpiperazin-1-yl)phenyl]methyl]-1,1-dioxo-2,3-dihydro-1λ^6,5-benzothiazepin-4-one]",88,4.25
7.57,"CC(C)(C)c1nnc(-c2ccc3c(c2)N(Cc2ccc(N4CCOCC4)cc2)C(=O)[C@@H](N)CS3(=O)=O)o1 [Example 446, (3R)-3-amino-7-(5-tert-butyl-1,3,4-oxadiazol-2-yl)-5-[(4-morpholinophenyl)methyl]-1,1-dioxo-2,3-dihydro-1λ^6,5-benzothiazepin-4-one]",51,9.9
